Where two headings read alike, the source gives them in different places.
Key:
HbA [1] = target: T1, HbA (Homo sapiens, UniProt P69905); assay: Steady-state concentration-dependent HbA binding; settings: for n (Hill coefficient): SS concentration-dependency; for fold enhancement of binding affinity (improvement of KD) relative to 5-HMF: compared to 5-HMF
HbA [2] = target: T1, HbA; assay: Time-dependent HbA binding kinetics; settings: for time to equilibration with HbA: low [AEH]0, assuming first-order conditions; for time to achieve steady state (SS): 0.2 mM HbA, pilot observations
HbS = settings: cited from earlier work
HbA [3] = target: T1, HbA; settings: cited from earlier work
[4] = Reference Method, sigmoidal Bmax model, PE (COV)

T1 sequence (P69905 2-142 limits assumed): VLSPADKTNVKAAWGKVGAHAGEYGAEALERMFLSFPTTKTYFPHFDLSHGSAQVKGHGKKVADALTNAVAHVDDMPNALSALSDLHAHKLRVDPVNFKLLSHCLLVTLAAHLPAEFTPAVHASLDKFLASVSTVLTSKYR
T1 sequence (P68871 2-147 partner limits assumed): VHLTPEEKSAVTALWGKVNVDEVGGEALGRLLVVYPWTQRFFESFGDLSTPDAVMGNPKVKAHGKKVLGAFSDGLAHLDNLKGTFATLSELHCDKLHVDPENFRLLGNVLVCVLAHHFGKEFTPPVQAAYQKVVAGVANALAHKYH

| Structure (SMILES) | Kd (HbA [1]) [µM] | n (Hill coefficient) (HbA [1]; sigmoidal Bmax model, PE (COV)) | fold enhancement of binding affinity (improvement of KD) relative to 5-HMF (HbA [1]) | Kd (HbA [2]) [µM] | HbS-AEH adduct (Hb modification) (HbS) [%] | time to equilibration with HbA (HbA [2]) | time to achieve steady state (SS) (HbA [2]) [s] | also measured |
| --- | --- | --- | --- | --- | --- | --- | --- | --- |
| O=Cc1ccc(C=O)o1 [2,5-DMF, 2,5-Furandicarboxaldehyde] | 190 | 1.7(21%) | 2 fold | 120 | – | – | – | koff (HbA [2]; read-out: koff (first-order dissociation rate constant)): 1.81e-05 s⁻¹ |
| COc1ccc(OCc2ccccn2)c(C=O)c1 [INN-310] | – | 2.4 (20%) | – | – | 100 | – | – | – |
| O=Cc1ccc(CO)o1 [5-HMF, 5-Hydroxymethyl-2-furfural] | – | 1.1 (10%) | – | – | – | 12 to 20 h | – | Bmax (HbA [1]; Universal Method, sigmoidal Bmax model, PE (COV)): 0.20 (6%); time to approach equilibrium (HbA [3]; 5-HMF in the presence of HbA): 24 to 30 h; Bmax (HbA [3]; [4]): 0.092 (10%); Bmax / HbA0 (HbA [3]; [4]): 0.74 (10%); Kd (HbA [3]; [4]): 280 µM; Kd (HbA [3]; read-out: binding affinity, 5-HMF in the presence of HbA): 250 µM |
| CC(C)n1nccc1-c1ncccc1COc1cccc(O)c1C=O [GBT-440] | 110 | 1.6 (16%) | – | – | – | – | ≤ 120 | HbA modified to the HbA-AEH adduct at saturation (HbA [1]; steady state, HbA solution): about 50% |
| O=Cc1c(O)cccc1OCc1cccc(CO)n1 [VZHE-039] | – | 1.9 (34%) | less than 5 fold | – | 100 | less than half an hour | < 360 | fold shorter t1/2^eq relative to 5-HMF (HbA [2]; current experimental conditions): more than 50 fold |
| COc1cc(C=O)ccc1O [Vanillin, 4-Hydroxy-5-methoxybenzaldehyde] | 1700 | – | – | 4300 | – | – | – | HbA modification (HbA [1]; 5.8 mM, initial pilot study): < 100% |
